From US6573244B1 (priority 1999, dated 2003)
Ends that are not written are not given here.

Assays:
BttxB = BttxB (Clostridium botulinum, UniProt P10844); assay: biochemical
Bttxs = settings: cited from earlier work
[1] = rat, in vivo, ip
[2] = biological target: T1, Botulinum toxin B, P10844; assay: cell-based or functional assay
T1 chain: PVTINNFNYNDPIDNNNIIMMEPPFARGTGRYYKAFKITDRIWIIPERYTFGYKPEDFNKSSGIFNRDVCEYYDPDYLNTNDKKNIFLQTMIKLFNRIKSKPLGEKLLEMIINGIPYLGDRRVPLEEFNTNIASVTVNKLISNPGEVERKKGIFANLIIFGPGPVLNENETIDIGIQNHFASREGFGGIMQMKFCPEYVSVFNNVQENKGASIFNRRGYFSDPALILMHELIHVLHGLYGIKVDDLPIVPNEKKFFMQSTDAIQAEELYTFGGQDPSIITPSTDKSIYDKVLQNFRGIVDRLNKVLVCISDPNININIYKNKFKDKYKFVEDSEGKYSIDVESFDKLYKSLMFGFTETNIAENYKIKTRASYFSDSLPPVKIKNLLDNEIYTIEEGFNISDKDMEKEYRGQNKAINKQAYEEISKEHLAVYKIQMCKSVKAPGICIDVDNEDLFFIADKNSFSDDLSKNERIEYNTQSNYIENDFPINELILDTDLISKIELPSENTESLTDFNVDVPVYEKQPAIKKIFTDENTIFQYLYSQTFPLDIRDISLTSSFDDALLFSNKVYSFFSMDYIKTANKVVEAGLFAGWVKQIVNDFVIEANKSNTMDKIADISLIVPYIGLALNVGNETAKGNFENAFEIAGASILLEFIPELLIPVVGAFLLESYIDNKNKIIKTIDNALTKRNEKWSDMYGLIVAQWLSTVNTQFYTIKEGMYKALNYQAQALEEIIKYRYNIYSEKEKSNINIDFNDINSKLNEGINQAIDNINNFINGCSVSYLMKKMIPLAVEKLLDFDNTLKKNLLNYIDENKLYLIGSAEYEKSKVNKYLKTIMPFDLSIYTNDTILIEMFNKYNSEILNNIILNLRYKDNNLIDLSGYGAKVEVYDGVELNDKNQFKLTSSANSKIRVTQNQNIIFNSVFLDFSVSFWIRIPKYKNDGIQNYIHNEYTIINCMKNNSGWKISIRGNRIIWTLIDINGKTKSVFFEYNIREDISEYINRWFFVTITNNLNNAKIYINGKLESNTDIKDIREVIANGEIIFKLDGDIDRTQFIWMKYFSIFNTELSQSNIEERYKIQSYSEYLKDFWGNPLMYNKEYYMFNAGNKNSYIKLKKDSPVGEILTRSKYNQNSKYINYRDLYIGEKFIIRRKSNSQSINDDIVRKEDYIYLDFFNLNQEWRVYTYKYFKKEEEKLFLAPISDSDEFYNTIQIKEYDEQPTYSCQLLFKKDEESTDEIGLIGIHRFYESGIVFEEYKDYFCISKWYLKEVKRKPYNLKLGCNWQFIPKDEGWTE

RPKPQQFFGLM [Substance P]
inhibition of BttxB, in words (BttxB): weak inhibitor | substrate of BttxB or not (BttxB): not a substrate

AGRGKQGGKVRAKAKTRSSRAGLQFPVGRVHRLLRK [Peptide 36]
substrate of BttxB or not (BttxB): not substrates

TRSRAKGLQFPGLLVHRLLRKGNY [Peptide 05P]
IC50 (BttxB): < 200000 nM

CC(C)C[C@H](NP(=O)(O)O[C@@H]1O[C@@H](C)[C@H](O)[C@@H](O)[C@H]1O)C(=O)N[C@@H](Cc1c[nH]c2ccccc12)C(=O)O [phosphoramidon]
inhibition of Bttxs, in words (Bttxs): not effective inhibitors

CC(C)C[C@H](NC(=O)CNC(=O)[C@H](C)NC(=O)[C@H](CCCNC(=N)N)NC(=O)[C@H](CO)NC(=O)[C@H](CO)NC(=O)[C@H](CCCNC(=N)N)NC(=O)[C@@H](NC(=O)[C@H](CCCCN)NC(=O)[C@H](C)NC(=O)[C@H](CCCCN)NC(=O)[C@H](C)NC(=O)[C@H](CCCNC(=N)N)NC(=O)[C@@H](NC(=O)[C@H](CCCCN)NC(=O)CNC(=O)CNC(=O)[C@H](CCC(N)=O)NC(=O)[C@H](CCCCN)NC(=O)CNC(=O)[C@H](CCCNC(=N)N)NC(=O)CNC(=O)[C@H](C)N)C(C)C)[C@@H](C)O)C(=O)N[C@@H](CCC(N)=O)C(=O)N[C@@H](Cc1ccccc1)C(=O)N1CCC[C@H]1C(=O)N[C@H](C(=O)NCC(=O)N[C@@H](CCCNC(=N)N)C(=O)N[C@H](C(=O)N[C@@H](Cc1c[nH]cn1)C(=O)N[C@@H](CCCNC(=N)N)C(=O)N[C@@H](CC(C)C)C(=O)N[C@@H](CC(C)C)C(=O)N[C@@H](CCCNC(=N)N)C(=O)N[C@@H](CCCCN)C(=O)NCC(=O)N[C@@H](CC(N)=O)C(=O)N[C@@H](Cc1ccc(O)cc1)C(=O)O)C(C)C)C(C)C [Buforin I]
IC50 (BttxB): 1000 nM | mode of inhibition of BttxB activity (BttxB): dose-dependently and competitively inhibits | substrate of BttxB or not (BttxB): not to be a substrate | plateau (time to maximal-plateau level) [1]: ≤ 40 min | time the maximal-plateau level was maintained [1]: up to 4 h | time to reach ½ the absorbed maximal value [1]: 7.7 min | uptake into the blood stream, in words [1]: rapid uptake

ELDDRADALQ [Peptide V2]
inhibition of Bttxs, in words (Bttxs): found to inhibit Bttx activity

TRSSRAGLQFPVGRVHRLLRKGNY [Peptide 24]
substrate of BttxB or not (BttxB): not substrates

C[C@H](CS)C(=O)N1CCC[C@H]1C(=O)O [captopril]
inhibition of Bttxs, in words (Bttxs): not effective inhibitors

TRSRAKGLQFPGLLVHRLLRKGNY (modifications not checked) [Peptide 05P]
inhibition of botulinum B proteolytic activity [2]: < 200 µM | potency of inhibition relative to Substance P [2]: < 4 fold
